Measured values reported in patent US8614327B2 (Vertex Pharmaceuticals Incorporated, priority 2004, dated 2013).

Molecular target: T1, ΔF508-CFTR (Homo sapiens, UniProt P13569, DEL508-508)
T1 construct: expressed in transfected cells
Assay: Membrane potential optical (FRET/VIPR) assay, identification of potentiator compounds
Assay type: cell-based
Conditions: Table 3, assay not given; for % Activity: relative efficacy
Method in brief: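 Double-addition potentiator screen: compound delivered in gluconate-substituted Cl^--free medium, membrane potential followed via CC2-DMPE/DiSBAC2(3) FRET on VIPR. Cells were ΔF508-CFTR-expressing NIH3T3 mouse fibroblasts, held 2 h at 37° C. then 24 h at 27° C. before assay.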

T1 sequence (P13569 with tags, fused parts or gaps DEL508-508): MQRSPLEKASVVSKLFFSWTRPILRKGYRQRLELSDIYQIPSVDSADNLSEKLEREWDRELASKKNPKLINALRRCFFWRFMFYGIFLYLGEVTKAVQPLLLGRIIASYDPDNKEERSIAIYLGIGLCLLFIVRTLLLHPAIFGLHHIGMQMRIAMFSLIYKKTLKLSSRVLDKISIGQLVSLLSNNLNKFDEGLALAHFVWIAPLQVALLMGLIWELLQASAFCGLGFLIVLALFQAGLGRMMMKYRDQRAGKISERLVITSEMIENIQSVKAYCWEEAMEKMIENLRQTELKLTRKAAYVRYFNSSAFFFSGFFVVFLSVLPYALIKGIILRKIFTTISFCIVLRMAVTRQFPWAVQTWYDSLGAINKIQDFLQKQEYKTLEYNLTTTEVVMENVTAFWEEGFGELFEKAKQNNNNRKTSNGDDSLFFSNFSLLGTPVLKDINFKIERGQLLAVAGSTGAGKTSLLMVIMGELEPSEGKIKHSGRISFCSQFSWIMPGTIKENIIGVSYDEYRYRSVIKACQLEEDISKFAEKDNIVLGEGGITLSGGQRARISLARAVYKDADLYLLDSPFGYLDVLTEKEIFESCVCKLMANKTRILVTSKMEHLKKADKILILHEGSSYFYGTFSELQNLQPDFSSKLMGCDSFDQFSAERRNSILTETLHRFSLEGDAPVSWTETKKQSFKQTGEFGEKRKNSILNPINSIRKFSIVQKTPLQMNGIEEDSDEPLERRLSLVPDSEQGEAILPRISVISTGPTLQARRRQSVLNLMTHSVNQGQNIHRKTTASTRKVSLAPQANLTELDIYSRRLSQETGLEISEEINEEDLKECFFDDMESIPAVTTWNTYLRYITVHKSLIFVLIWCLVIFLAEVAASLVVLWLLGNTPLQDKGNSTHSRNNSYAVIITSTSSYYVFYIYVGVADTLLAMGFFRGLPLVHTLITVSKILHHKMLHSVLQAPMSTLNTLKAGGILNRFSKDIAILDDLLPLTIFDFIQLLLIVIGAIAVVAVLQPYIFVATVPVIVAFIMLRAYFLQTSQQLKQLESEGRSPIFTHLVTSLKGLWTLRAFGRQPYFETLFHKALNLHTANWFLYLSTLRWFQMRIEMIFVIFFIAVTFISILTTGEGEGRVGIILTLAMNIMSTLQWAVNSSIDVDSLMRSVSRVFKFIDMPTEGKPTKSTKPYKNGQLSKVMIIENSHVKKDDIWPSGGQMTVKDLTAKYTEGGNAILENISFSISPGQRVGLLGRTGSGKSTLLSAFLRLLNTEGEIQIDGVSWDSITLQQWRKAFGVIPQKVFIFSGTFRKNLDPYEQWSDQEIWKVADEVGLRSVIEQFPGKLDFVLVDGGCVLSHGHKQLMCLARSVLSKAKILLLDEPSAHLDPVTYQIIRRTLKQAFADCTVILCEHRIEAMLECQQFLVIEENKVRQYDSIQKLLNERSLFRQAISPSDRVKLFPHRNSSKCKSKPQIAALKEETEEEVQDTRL

Compound | EC50 [µM] | % Activity
CC(C)(C)C(=O)Nc1ccc(NC(=O)c2c[nH]c3ccccc3c2=O)c(C(F)(F)F)c1 [Compound 556, N-[4-(2,2-dimethylpropanoylamino)-2-(trifluoromethyl)phenyl]-4-oxo-1H-quinoline-3-carboxamide] | < 10 | ++ (between 25% to 100%)
CC(C)c1ccc(NC(=O)c2c[nH]c3ccc(F)cc3c2=O)c(C(F)(F)F)c1 [Compound 557, 6-fluoro-N-[4-isopropyl-2-(trifluoromethyl)phenyl]-4-oxo-1H-quinoline-3-carboxamide] | < 10 | ++ (between 25% to 100%)
CC(C)(C)c1cc2cc[nH]c2cc1NC(=O)c1c[nH]c2cc(C#N)ccc2c1=O [Compound 558, 7-cyano-4-oxo-N-(5-tert-butyl-1H-indol-6-yl)-1H-quinoline-3-carboxamide] | < 10 | ++ (between 25% to 100%)
CC(C)(C)c1cc2cc[nH]c2cc1NC(=O)c1c[nH]c2c(C(F)(F)F)cccc2c1=O [Compound 559, 4-oxo-N-(5-tert-butyl-1H-indol-6-yl)-8-(trifluoromethyl)-1H-quinoline-3-carboxamide] | 10 to 25 | + (<25%)
COc1cc(NC(=O)c2c[nH]c3ccccc3c2=O)ccc1-n1c(C)ccc1C [Compound 560, N-[4-(2,5-dimethylpyrrol-1-yl)-3-methoxy-phenyl]-4-oxo-1H-quinoline-3-carboxamide] | < 10 | ++ (between 25% to 100%)
CC(C)(C)c1cc(F)c(NC(=O)c2c[nH]c3ccc(Cl)cc3c2=O)cc1O [Compound 561, 6-chloro-N-(2-fluoro-5-hydroxy-4-tert-butyl-phenyl)-4-oxo-1H-quinoline-3-carboxamide] | < 10 | ++ (between 25% to 100%)
O=C(Nc1ccc(N2CCCC2)cc1C(F)(F)F)c1c[nH]c2ccc(F)cc2c1=O [Compound 562, 6-fluoro-4-oxo-N-[4-pyrrolidin-1-yl-2-(trifluoromethyl)phenyl]-1H-quinoline-3-carboxamide] | < 10 | ++ (between 25% to 100%)
O=C(Nc1cc(O)cc(C(F)(F)F)c1)c1c[nH]c2ccccc2c1=O [Compound 563, N-[3-hydroxy-5-(trifluoromethyl)phenyl]-4-oxo-1H-quinoline-3-carboxamide] | < 10 | ++ (between 25% to 100%)
O=C(Nc1ccc(C2CCCCC2)c(O)c1)c1c[nH]c2ccccc2c1=O [Compound 564, N-(4-cyclohexyl-3-hydroxy-phenyl)-4-oxo-1H-quinoline-3-carboxamide] | < 10 | ++ (between 25% to 100%)
Cc1cccc2[nH]cc(C(=O)Nc3cc4[nH]ccc4cc3C(C)(C)C)c(=O)c12 [Compound 565, 5-methyl-4-oxo-N-(5-tert-butyl-1H-indol-6-yl)-1H-quinoline-3-carboxamide] | < 10 | ++ (between 25% to 100%)
COCCn1ccc2cc(C(F)(F)F)c(NC(=O)c3c[nH]c4ccc(F)cc4c3=O)cc21 [Compound 566, 6-fluoro-N-[1-(2-methoxyethyl)-5-(trifluoromethyl)indol-6-yl]-4-oxo-1H-quinoline-3-carboxamide] | < 10 | ++ (between 25% to 100%)
O=C(Nc1ccc(N2CCC[C@H]2C(=O)O)cc1C(F)(F)F)c1c[nH]c2ccccc2c1=O [Compound 567, (S)-1-[4-[(4-oxo-1H-quinolin-3-yl)carbonylamino]-3-(trifluoromethyl)phenyl]pyrrolidine-2-carboxylic acid] | < 10 | ++ (between 25% to 100%)
Cc1ccc2[nH]cc(C(=O)Nc3ccc(N4[C@H](C)CC[C@H]4C)cc3C(F)(F)F)c(=O)c2c1 [Compound 569, N-(4-((2R,5R)-2,5-dimethylpyrrolidin-1-yl)-2-(trifluoromethyl)phenyl)-6-methyl-4-oxo-1,4-dihydroquinoline-3-carboxamide] | < 10 | ++ (between 25% to 100%)
CC(C)c1cc(C(F)(F)F)c(NC(=O)c2c[nH]c3ccccc3c2=O)cc1OCc1ccccc1 [Compound 570, N-[5-benzyloxy-4-isopropyl-2-(trifluoromethyl)phenyl]-4-oxo-1H-quinoline-3-carboxamide] | < 10 | ++ (between 25% to 100%)
COc1nc(NC(=O)c2c[nH]c3ccccc3c2=O)ccc1C(F)(F)F [Compound 571, N-[6-methoxy-5-(trifluoromethyl)-2-pyridyl]-4-oxo-1H-quinoline-3-carboxamide] | < 10 | + (<25%)
C[C@@H]1CCCN1c1ccc(NC(=O)c2c[nH]c3ccccc3c2=O)c(C(F)(F)F)c1 [Compound 572, (R)-N-(4-(2-methylpyrrolidin-1-yl)-2-(trifluoromethyl)phenyl)-4-oxo-1,4-dihydroquinoline-3-carboxamide] | – | ++ (between 25% to 100%)

Compound | EC50 [µM] | % Activity
CC(C)c1ccc(NC(=O)c2c[nH]c3c(F)cccc3c2=O)c(C(F)(F)F)c1 [Compound 573, 8-fluoro-N-[4-isopropyl-2-(trifluoromethyl)phenyl]-4-oxo-1H-quinoline-3-carboxamide] | < 10 | ++ (between 25% to 100%)
O=C(Nc1cc(O)cc(C(F)(F)F)c1)c1c[nH]c2ccc(F)cc2c1=O [Compound 574, 6-fluoro-N-[3-hydroxy-5-(trifluoromethyl)phenyl]-4-oxo-1H-quinoline-3-carboxamide] | < 10 | ++ (between 25% to 100%)
CC(C)c1ccc(NC(=O)c2c[nH]c3ccccc3c2=O)cc1O [Compound 575, N-(3-hydroxy-4-isopropyl-phenyl)-4-oxo-1H-quinoline-3-carboxamide] | < 10 | ++ (between 25% to 100%)
Cc1ccc2c(=O)c(C(=O)Nc3cc4[nH]ccc4cc3C(F)(F)F)c[nH]c2c1 [Compound 576, 7-methyl-4-oxo-N-[5-(trifluoromethyl)-1H-indol-6-yl]-1H-quinoline-3-carboxamide] | < 10 | ++ (between 25% to 100%)
Cc1ccc(C(F)(F)F)cc1NC(=O)c1c[nH]c2ccccc2c1=O [Compound 577, N-[2-methyl-5-(trifluoromethyl)phenyl]-4-oxo-1H-quinoline-3-carboxamide] | < 10 | ++ (between 25% to 100%)
Cc1cccc2[nH]cc(C(=O)Nc3ccc(N4CCC(C)(C)C4)cc3C(F)(F)F)c(=O)c12 [Compound 578, N-[4-(3,3-dimethylpyrrolidin-1-yl)-2-(trifluoromethyl)phenyl]-5-methyl-4-oxo-1H-quinoline-3-carboxamide] | < 10 | ++ (between 25% to 100%)
O=C(Nc1ccc(OC(F)(F)F)c(N2CCCC2)c1)c1c[nH]c2ccccc2c1=O [Compound 579, 4-oxo-N-[3-pyrrolidin-1-yl-4-(trifluoromethoxy)phenyl]-1H-quinoline-3-carboxamide] | < 10 | ++ (between 25% to 100%)
CC(C)(C)c1cc(C(C)(C)C)c(NC(=O)c2c[nH]c3c(C(F)(F)F)cccc3c2=O)cc1O [Compound 580, N-(5-hydroxy-2,4-ditert-butyl-phenyl)-4-oxo-8-(trifluoromethyl)-1H-quinoline-3-carboxamide] | < 10 | + (<25%)
Cc1cccc2[nH]cc(C(=O)Nc3ccc(N4CCC[C@@H]4C)nc3C(F)(F)F)c(=O)c12 [Compound 581, (S)-5-methyl-N-(6-(2-methylpyrrolidin-1-yl)-2-(trifluoromethyl)pyridin-3-yl)-4-oxo-1,4-dihydroquinoline-3-carboxamide] | < 10 | ++ (between 25% to 100%)
Cc1cccc2[nH]cc(C(=O)Nc3ccc(N4C[C@@H]5CC[C@H]4C5)cc3C(F)(F)F)c(=O)c12 [Compound 582, N-(4-((1S,4R)-2-azabicyclo[2.2.1]heptan-2-yl)-2-(trifluoromethyl)phenyl)-5-methyl-4-oxo-1,4-dihydroquinoline-3-carboxamide] | < 10 | ++ (between 25% to 100%)
COc1ccc2c(=O)c(C(=O)Nc3cc(O)c(C(C)(C)C)cc3C(C)(C)C)c[nH]c2c1 [Compound 583, N-(5-hydroxy-2,4-ditert-butyl-phenyl)-7-methoxy-4-oxo-1H-quinoline-3-carboxamide] | < 10 | ++ (between 25% to 100%)
COc1ccc2[nH]cc(C(=O)Nc3cc(O)c(C4(C)CCCCC4)cc3F)c(=O)c2c1 [Compound 584, N-[2-fluoro-5-hydroxy-4-(1-methylcyclohexyl)-phenyl]-6-methoxy-4-oxo-1H-quinoline-3-carboxamide] | < 10 | ++ (between 25% to 100%)
CC(C)(C)c1cc(C(C)(C)C)c(NC(=O)c2c[nH]c3cccc(N)c3c2=O)cc1O [Compound 585, 5-amino-N-(5-hydroxy-2,4-ditert-butyl-phenyl)-4-oxo-1H-quinoline-3-carboxamide] | < 10 | +++ (>100%)
CC(C)c1ccc(NC(=O)c2c[nH]c3cccc(O)c3c2=O)cc1O [Compound 587, 5-hydroxy-N-(3-hydroxy-4-isopropyl-phenyl)-4-oxo-1H-quinoline-3-carboxamide] | < 10 | ++ (between 25% to 100%)
Cc1cc(C(C)(C)C)c(O)cc1NC(=O)c1c[nH]c2cccc(O)c2c1=O [Compound 588, 5-hydroxy-N-(5-hydroxy-2-methyl-4-tert-butyl-phenyl)-4-oxo-1H-quinoline-3-carboxamide] | < 10 | ++ (between 25% to 100%)
CC(C)c1ccc(NC(=O)c2c[nH]c3cc(F)c(F)cc3c2=O)c(C(F)(F)F)c1 [Compound 589, 6,7-difluoro-N-[4-isopropyl-2-(trifluoromethyl)phenyl]-4-oxo-1H-quinoline-3-carboxamide] | < 10 | ++ (between 25% to 100%)
